Results: patent publication US10376561B1, “Fasciola hepatica fatty acid binding protein a novel anti-inflammatory molecule” (priority 2015, dated 2019)

Legend:
TLR4 = assay: NF-κB activation in TLR4-transfected HEK cells (SEAP, A655); type: cell-based, human; conditions: PMB 100 μM; LPS 5 μg/ml
Experimental: To investigate the mechanism of interaction between Fh12 and TLR4 we used Human Embryonic Kidney 293 cells (HEK293, InvivoGen). These cells (HEK293-TLR4) are co-transfected with genes encoding cluster differentiation antigen-14 (CD14), myeloid differentiation protein-2 (MD2), toll-like receptor-4 (TLR4) co-receptor, and a SEAP reporter gene (HEK293-TLR4). Cells were maintained in DMEM supplemented with 4.5 g/L glucose, 10% fetal bovine serum (FBS), 50 U/ml penicillin, 50 μg/ml streptomycin, 100 μg/ml Normocin™ and 2 mM L-glutamine. For all experiments a cell suspension was prepared using HEK-Blue™ Detection medium at 14×10^4 cells/ml. For stimulation experiments, cells were seeded at 2.52×10^4 cells/well in 96-well flat-bottom plates and treated with Fh12 (from 0.62 to 10 μg/ml) or LPS (5 μg/ml), and incubated at 37° C., 5% CO2 for 24 h. In the inhibition experiments, cells were cultured with Fh12 (0.6 to 10 μg/ml) 30 min prior LPS (5 μg/ml) stimulation. […] All readings were done at 655 nm after 24 h of LPS-stimulation. […] The percent of reduction (R %) of the absorbance values was calculated by the formula R (%)=100−[(A−C)×100)/(B−C)], where A is the mean A655 of three replicates obtained when cells were stimulated with Fh12, and B is the mean A665 value obtained when cells were exposed to LPS, and C is the mean A655 of three replicates obtained when cells were stimulated with PBS. […]

human LBP = target: T1, human LBP (Homo sapiens, UniProt P18428); assay: LPS-binding protein (LBP)/LPS interaction assay (Endoblock LBP ELISA); conditions: Polymyxin-B 100 μM
T1 construct: purchased Hycult Biotech
T1 sequence (P18428 26-481): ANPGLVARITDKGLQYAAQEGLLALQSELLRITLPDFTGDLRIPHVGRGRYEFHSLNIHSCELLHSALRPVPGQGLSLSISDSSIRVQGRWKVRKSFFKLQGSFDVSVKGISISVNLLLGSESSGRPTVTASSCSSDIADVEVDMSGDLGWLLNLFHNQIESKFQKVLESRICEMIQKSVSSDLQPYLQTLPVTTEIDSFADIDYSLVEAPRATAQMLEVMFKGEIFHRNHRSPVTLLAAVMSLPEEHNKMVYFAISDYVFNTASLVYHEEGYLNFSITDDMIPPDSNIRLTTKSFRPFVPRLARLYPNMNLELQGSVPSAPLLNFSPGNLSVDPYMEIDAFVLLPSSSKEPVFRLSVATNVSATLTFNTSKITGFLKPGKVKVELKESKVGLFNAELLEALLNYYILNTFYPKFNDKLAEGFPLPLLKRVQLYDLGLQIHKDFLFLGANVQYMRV
Experimental: The Endoblock LBP ELISA test kit (Hycult Biotech, PA, USA) was used according to the manufacturer's instructions to investigate whether Fh12 disrupts the interaction between LPS and LBP. Briefly, binding of biotinylated LPS to pre-captured human LBP was assessed using streptavidin peroxidase, followed by addition of tetramethylbenzidine. Fh12 (0.05-10 μg/ml) was pre-incubated for 30 min with biotinylated-LPS and added to wells pre-coated with anti-LBP+LBP. PMB (0.2-100 μM), which competes with LBP for binding to LPS, was used as a control for inhibition by pre-incubation with biotinylated-LPS.
To investigate the mechanism through which Fh12 specifically blocks the interaction between LPS and TLR4, we firstly assessed whether Fh12 exposure alters either the interaction of LPS with […] (LBP), or the expression of any TLR4 complex component. To assess whether Fh12 prevents binding of LPS to LBP, we used an LBP-ELISA kit, which detects binding of biotinylated LPS to LBP. PMB, which competes with LBP for binding to LPS, was used as a positive control. A lipid-binding protein assay (Endoblock) was used to investigate whether Fh12 disrupts the interaction between LPS and LBP. Polymyxin-B (100 μM), which is known to compete with LBP for binding to LPS, blocked LBP/LPS binding.

Question: For polymyxin-B [PMB], which “NF-κB expression, antagonist control” value (TLR4) is on record?
Answer: The value was “completely suppressed”.

Question: And the “LBP/LPS binding, positive control” value (human LBP)?
Answer: The value was “blocked”.
